Tests used:
Type in all cases: cell-based
[1] = biological target: T1, wild-type EGFR transformed Ba/F3 cells (Homo sapiens, UniProt P00533); experiment: Proliferation inhibition assay, wild-type EGFR transformed Ba/F3 cells; details: MTS assay, 72 hours
T1 construct: expressed in transfected cells; host or cells: Ba/F3
Protocol: (§1) Cell growth inhibition can be assessed by MTS assay or by Cell Titer Glo Luminescent Cell viability assay (Promega®). Cells are seeded and grow in culture plates before they are exposed to representative compounds of the application for various duration. The viability of the cells are then assessed. […] The growth curves can be fitted using a nonlinear regression model with sigmoidal dose response.
(§2) Cell growth inhibition was assessed by MTS assay for Ba/F3, DFCI58-229, and DFCI127c cells, or by Cell Titer Glo Luminescent Cell viability assay (Promega®) for DFC1362JC cells, 3000 Ba/F3 cells were seeded for per well in 96-well plates, and were exposed to representative compounds of the application (3.3 nM to 10 μM) for 72 hours. For DFCI58-229, DFCI127c, and DFC1362JC cells, 5000 cells were seeded per well. All experimental points included 6 to 12 wells. […] The growth curves were fitted using a nonlinear regression model with sigmoidal dose response.
(§3) Activities of representative compounds of the present application in inhibiting EGFR and HER2 were tested by MTS assay (for Ba/F3 cell, DFCI58-229 cell, and DFCI127c cells) or by CellTiter-Glot luminescent cell viability assay (for DFCI362JC cells). For assays with Ba/F3 cells, 3000 cells were seeded for per well in 96-well plates and were exposed to indicated compounds with a concentration of 3.3 to 10 μM for 72 hours. For assays with DFCI58-229 cell, DFCI127c cell, or DFCI362JC cell, 5000 cells were seeded per well in 96-well plates and were exposed to indicated compounds with a concentration of 3.3 to 10 μM for 72 hours.

[2] = biological target: T2, wild-type HER2 transformed Ba/F3 cells (Homo sapiens, UniProt P04626); experiment: Proliferation inhibition assay, wild-type HER2 transformed Ba/F3 cells; details: MTS assay, 72 hours, Table 9 key
T2 construct: expressed in transfected cells; host or cells: Ba/F3
Protocol: as §1, §2, §3

[3] = biological target: mutant EGFR Exon19del transformed Ba/F3 cells (Homo sapiens, UniProt P00533, cells depend on it, form not given); experiment: Proliferation inhibition assay, EGFR Exon19del transformed Ba/F3 cells
[4] = biological target: T3, EGFR InsNPG (D770_N771insNPG) transformed Ba/F3 cells (Homo sapiens, UniProt P00533, INS770NPG); experiment: Proliferation inhibition assay, EGFR InsNPG transformed Ba/F3 cells; details: MTS assay, 72 hours
T3 construct: expressed in transfected cells; host or cells: Ba/F3
Protocol: as §1, §2, §3

[5] = biological target: T4, EGFR InsH transformed Ba/F3 cells (Homo sapiens, UniProt P00533, DUP773-773); experiment: Proliferation inhibition assay, EGFR InsH transformed Ba/F3 cells; details: MTS assay, 72 hours
T4 construct: expressed in transfected cells; host or cells: Ba/F3
Protocol: as §1, §2, §3

[6] = biological target: mutant EGFR T790M/exon19del transformed Ba/F3 cells (Homo sapiens, UniProt P00533, T790M, cells depend on it, form not given); experiment: Proliferation inhibition assay, EGFR T790M/exon19del transformed Ba/F3 cells
[7] = biological target: T5, EGFR InsSVD (D770_N771insSVD) transformed Ba/F3 cells (Homo sapiens, UniProt P00533, INS770SVD); experiment: Proliferation inhibition assay, EGFR InsSVD transformed Ba/F3 cells; details: MTS assay, 72 hours
T5 construct: expressed in transfected cells; host or cells: Ba/F3
Protocol: as §1, §2, §3

[8] = biological target: T1, wild-type EGFR transformed Ba/F3 cells; experiment: Western blot, EGFR phosphorylation, wild-type EGFR Ba/F3 cells; details: indicated concentrations, 6 hours of treatment
Protocol: (§4) Cells are seeded and grow in culture plates, and then treated with representative compounds of the application the following day for various duration. Cells are washed with PBS and lysed.
(§5) Cells were plated at 5×10^5 cells per well in 6-well plates and treated with representative compounds of the application the following day. After 6 hours of treatment, cells were washed with PBS and lysed with NP40 buffer (Calbiochem®) supplemented with Complete™ Mini protease inhibitor and PhosSTOP™ phosphatase inhibitors (Rocheg).
(§6) Western blot analysis was then performed on the cells. The cells were plated at 5×10^5 cells per well in 6-well plates and treated with the indicated concentrations of the compound.
(§7) After 6 hours of treatment, cells were washed with PBS and lysed with NP40 buffer (Calbiochem) supplemented with Complete Mini protease inhibitor and PhosSTOP phosphatase inhibitors (Roche).

[9] = biological target: T6, mutant EGFR T790M/L858R transformed Ba/F3 cells (Homo sapiens, UniProt P00533, L858R/T790M); experiment: Proliferation inhibition assay, EGFR T790M/L858R transformed Ba/F3 cells
T6 construct: expressed in transfected cells; host or cells: Ba/F3

[10] = biological target: T7, EGFR InsSVD transformed Ba/F3 cells (Homo sapiens, UniProt P00533, INS770SVD); experiment: Western blot, EGFR phosphorylation, EGFR InsSVD Ba/F3 cells; details: indicated concentrations, 6 hours of treatment
T7 construct: expressed in transfected cells; host or cells: Ba/F3
Protocol: as §4, §5, §6, §7

[11] = biological target: T8, EGFR InsGY transformed Ba/F3 cells (Homo sapiens, UniProt P00533, D770Y/INS769G); experiment: Western blot, EGFR phosphorylation, EGFR InsGY Ba/F3 cells; details: indicated concentrations, 6 hours of treatment
T8 construct: expressed in transfected cells; host or cells: Ba/F3
Protocol: as §4, §5, §6, §7

[12] = biological target: T9, HER2 InsYVMA (A775_G776insYVMA) transformed Ba/F3 cells (Homo sapiens, UniProt P04626, INS775YVMA); experiment: Proliferation inhibition assay, HER2 InsYVMA transformed Ba/F3 cells; details: MTS assay, 72 hours, Table 9 key
T9 construct: expressed in transfected cells; host or cells: Ba/F3
Protocol: as §1, §2, §3

[13] = biological target: T10, mutant EGFR L858R transformed Ba/F3 cells (Homo sapiens, UniProt P00533, L858R); experiment: Proliferation inhibition assay, EGFR L858R transformed Ba/F3 cells
T10 construct: expressed in transfected cells; host or cells: Ba/F3

[14] = biological target: T11, EGFR InsASV (V769_D770insASV) transformed Ba/F3 cells (Homo sapiens, UniProt P00533, INS769ASV); experiment: Proliferation inhibition assay, EGFR InsASV transformed Ba/F3 cells; details: MTS assay, 72 hours
T11 construct: expressed in transfected cells; host or cells: Ba/F3
Protocol: as §1, §2, §3

[15] = biological target: T12, HER2 InsVC (G776delinsVC) transformed Ba/F3 cells (Homo sapiens, UniProt P04626, G776C/INS775V); experiment: Proliferation inhibition assay, HER2 InsVC transformed Ba/F3 cells; details: MTS assay, 72 hours, Table 9 key
T12 construct: expressed in transfected cells; host or cells: Ba/F3
Protocol: as §1, §2, §3

[16] = biological target: T13, HER2 InsWLV transformed Ba/F3 cells (Homo sapiens, UniProt P04626, INS773WL/M774V); experiment: Proliferation inhibition assay, HER2 InsWLV transformed Ba/F3 cells; details: MTS assay, 72 hours, Table 9 key
T13 construct: expressed in transfected cells; host or cells: Ba/F3
Protocol: as §1, §2, §3

[17] = biological target: T14, EGFR InsGY (D770delinsGY) transformed Ba/F3 cells (Homo sapiens, UniProt P00533, D770Y/INS769G); experiment: Proliferation inhibition assay, EGFR InsGY transformed Ba/F3 cells; details: MTS assay, 72 hours
T14 construct: expressed in transfected cells; host or cells: Ba/F3
Protocol: as §1, §2, §3

[18] = biological target: T15, HER2 InsGSP (P780_Y781insGSP) transformed Ba/F3 cells (Homo sapiens, UniProt P04626, INS780GSP); experiment: Proliferation inhibition assay, HER2 InsGSP transformed Ba/F3 cells; details: MTS assay, 72 hours, Table 9 key
T15 construct: expressed in transfected cells; host or cells: Ba/F3
Protocol: as §1, §2, §3

[19] = biological target: T16, EGFR InsHH (Y764_V765insHH) transformed Ba/F3 cells (Homo sapiens, UniProt P00533, INS764HH); experiment: Proliferation inhibition assay, EGFR InsHH transformed Ba/F3 cells; details: MTS assay, 72 hours
T16 construct: expressed in transfected cells; host or cells: Ba/F3
Protocol: as §1, §2, §3

T2 sequence (P04626 23-1255): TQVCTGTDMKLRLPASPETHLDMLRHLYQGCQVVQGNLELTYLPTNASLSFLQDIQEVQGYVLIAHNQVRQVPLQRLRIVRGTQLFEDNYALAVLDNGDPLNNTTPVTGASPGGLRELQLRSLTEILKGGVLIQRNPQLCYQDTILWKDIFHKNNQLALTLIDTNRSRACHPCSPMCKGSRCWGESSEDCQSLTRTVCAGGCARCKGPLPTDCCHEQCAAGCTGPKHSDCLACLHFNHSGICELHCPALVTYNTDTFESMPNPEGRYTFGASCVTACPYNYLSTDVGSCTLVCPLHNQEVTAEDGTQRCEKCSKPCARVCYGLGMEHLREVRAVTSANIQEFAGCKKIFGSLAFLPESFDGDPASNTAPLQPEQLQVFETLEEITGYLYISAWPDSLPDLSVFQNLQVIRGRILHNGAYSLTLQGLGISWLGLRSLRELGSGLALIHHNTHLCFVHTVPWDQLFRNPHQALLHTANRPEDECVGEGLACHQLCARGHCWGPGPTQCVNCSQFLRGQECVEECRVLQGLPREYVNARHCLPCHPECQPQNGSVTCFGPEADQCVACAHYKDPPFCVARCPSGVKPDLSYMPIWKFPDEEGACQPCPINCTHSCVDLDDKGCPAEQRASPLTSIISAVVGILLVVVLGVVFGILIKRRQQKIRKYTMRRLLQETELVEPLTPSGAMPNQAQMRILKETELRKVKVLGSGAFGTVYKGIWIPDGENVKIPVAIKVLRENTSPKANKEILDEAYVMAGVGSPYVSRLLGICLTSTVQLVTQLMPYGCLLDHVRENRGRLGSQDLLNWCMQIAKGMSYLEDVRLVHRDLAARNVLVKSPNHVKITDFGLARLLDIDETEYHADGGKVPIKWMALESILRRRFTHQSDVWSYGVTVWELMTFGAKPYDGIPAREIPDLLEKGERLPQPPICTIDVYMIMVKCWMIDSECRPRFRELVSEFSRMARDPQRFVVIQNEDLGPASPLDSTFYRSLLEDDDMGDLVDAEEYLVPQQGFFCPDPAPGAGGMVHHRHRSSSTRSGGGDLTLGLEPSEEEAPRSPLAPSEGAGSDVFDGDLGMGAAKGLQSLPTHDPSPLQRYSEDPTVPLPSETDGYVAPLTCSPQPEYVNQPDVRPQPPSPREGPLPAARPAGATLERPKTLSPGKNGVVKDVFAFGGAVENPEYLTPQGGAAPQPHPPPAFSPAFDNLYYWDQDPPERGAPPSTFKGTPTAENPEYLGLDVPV
T13 sequence (P04626 with tags, fused parts or gaps INS773WL/M774V): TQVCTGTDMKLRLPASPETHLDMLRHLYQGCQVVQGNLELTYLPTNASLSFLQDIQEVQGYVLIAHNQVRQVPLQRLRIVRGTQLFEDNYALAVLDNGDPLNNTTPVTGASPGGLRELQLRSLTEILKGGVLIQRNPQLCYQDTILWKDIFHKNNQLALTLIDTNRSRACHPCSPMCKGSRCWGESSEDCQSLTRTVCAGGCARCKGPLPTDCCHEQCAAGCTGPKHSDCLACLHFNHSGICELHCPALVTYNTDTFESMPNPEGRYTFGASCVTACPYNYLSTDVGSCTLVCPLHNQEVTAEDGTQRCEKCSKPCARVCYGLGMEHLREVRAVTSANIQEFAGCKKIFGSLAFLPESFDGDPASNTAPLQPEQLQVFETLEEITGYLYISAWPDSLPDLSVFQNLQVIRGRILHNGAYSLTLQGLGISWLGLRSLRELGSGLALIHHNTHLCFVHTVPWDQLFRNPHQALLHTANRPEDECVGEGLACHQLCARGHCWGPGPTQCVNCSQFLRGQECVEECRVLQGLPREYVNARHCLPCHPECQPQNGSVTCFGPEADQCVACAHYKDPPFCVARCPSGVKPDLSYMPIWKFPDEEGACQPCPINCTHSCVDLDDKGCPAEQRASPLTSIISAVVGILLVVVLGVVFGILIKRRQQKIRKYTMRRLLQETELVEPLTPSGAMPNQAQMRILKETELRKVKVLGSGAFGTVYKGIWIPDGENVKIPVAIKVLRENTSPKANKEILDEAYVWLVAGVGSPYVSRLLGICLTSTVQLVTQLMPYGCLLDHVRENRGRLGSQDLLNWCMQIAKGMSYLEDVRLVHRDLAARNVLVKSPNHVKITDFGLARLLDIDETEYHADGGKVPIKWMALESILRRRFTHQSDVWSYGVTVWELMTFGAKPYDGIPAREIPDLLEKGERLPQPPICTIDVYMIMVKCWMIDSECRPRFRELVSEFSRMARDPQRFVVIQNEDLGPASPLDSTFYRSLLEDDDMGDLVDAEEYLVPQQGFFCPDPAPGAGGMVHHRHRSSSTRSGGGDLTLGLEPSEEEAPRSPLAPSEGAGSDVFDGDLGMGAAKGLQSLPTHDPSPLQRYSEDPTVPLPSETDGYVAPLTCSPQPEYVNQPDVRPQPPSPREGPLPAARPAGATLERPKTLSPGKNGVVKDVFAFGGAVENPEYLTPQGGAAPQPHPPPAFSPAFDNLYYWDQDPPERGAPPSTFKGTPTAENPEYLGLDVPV
T9 sequence (P04626 with tags, fused parts or gaps INS775YVMA): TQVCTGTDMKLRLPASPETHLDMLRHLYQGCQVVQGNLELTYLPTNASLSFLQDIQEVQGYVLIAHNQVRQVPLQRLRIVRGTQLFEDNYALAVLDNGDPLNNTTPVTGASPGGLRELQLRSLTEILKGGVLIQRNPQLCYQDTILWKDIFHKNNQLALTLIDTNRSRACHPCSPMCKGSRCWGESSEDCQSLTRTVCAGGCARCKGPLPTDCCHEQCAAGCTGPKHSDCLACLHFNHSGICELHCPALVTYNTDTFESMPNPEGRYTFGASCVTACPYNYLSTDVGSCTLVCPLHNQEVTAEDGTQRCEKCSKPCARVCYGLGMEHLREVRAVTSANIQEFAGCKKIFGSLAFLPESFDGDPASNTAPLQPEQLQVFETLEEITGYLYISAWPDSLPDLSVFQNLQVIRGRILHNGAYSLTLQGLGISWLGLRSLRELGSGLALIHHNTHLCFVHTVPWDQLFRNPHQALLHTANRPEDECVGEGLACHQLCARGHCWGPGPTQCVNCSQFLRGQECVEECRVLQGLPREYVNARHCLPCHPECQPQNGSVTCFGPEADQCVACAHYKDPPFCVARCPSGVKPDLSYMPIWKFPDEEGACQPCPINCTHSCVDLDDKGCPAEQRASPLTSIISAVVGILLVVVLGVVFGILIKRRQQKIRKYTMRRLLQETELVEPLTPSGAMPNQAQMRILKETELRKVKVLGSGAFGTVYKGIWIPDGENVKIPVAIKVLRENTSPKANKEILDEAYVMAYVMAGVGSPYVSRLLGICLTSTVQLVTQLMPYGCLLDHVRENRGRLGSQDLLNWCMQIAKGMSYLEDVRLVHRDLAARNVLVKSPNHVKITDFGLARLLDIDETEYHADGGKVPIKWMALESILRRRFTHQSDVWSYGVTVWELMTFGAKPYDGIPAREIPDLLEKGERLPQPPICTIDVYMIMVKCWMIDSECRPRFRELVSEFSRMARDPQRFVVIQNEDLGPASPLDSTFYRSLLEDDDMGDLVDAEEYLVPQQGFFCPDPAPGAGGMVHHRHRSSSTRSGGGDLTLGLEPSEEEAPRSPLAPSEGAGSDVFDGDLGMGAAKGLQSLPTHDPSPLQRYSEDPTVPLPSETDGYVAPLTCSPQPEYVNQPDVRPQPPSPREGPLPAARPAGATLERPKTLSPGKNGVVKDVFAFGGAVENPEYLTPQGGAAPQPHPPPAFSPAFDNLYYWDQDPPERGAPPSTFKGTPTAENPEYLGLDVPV
T12 sequence (P04626 with tags, fused parts or gaps INS775V/G776C): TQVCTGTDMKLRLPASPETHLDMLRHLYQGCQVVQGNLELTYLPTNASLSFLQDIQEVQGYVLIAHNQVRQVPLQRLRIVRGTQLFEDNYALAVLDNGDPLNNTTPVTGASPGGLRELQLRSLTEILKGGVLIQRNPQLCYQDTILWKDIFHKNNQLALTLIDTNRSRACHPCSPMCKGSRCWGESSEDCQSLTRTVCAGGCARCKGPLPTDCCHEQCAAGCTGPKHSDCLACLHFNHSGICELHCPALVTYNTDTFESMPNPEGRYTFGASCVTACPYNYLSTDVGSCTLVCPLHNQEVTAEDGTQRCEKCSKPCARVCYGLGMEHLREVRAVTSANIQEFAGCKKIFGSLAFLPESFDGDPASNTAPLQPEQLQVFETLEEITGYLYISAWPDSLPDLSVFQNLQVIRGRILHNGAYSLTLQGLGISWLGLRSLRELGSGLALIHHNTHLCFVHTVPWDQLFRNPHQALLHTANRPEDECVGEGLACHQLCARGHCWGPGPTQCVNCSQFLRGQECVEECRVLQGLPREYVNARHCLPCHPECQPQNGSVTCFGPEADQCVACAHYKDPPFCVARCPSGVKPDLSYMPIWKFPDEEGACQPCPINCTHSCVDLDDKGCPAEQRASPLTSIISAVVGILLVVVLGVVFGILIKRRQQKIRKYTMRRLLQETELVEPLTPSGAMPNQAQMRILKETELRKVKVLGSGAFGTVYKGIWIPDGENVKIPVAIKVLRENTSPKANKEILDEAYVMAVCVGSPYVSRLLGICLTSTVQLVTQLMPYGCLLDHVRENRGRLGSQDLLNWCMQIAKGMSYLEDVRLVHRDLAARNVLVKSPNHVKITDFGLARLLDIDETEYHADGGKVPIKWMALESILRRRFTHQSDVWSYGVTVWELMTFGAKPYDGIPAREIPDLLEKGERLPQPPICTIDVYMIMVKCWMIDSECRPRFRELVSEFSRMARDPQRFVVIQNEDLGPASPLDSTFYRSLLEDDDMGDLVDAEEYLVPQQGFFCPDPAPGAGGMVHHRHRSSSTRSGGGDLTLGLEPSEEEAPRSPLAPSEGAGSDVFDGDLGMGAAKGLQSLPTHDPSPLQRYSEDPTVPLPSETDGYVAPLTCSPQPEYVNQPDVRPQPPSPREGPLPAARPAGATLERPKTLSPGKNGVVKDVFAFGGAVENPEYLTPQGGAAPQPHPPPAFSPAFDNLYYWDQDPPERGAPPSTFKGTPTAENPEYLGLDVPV

| Compound | EC50 [1] | EC50 [2] | EC50 [3] | EC50 [4] | EC50 [5] | EC50 [6] | EC50 [7] | EGFR phosphorylation (Western blot, FIG. 1) [8] | EC50 [9] | EGFR phosphorylation (Western blot, FIG. 1) [10] | EGFR phosphorylation (Western blot, FIG. 1) [11] | EC50 [12] | EC50 [13] | EC50 [14] | EC50 [15] | EC50 [16] | EC50 [17] | EC50 [18] | EC50 [19] |
| --- | --- | --- | --- | --- | --- | --- | --- | --- | --- | --- | --- | --- | --- | --- | --- | --- | --- | --- | --- |
| C=CC(=O)Nc1cccc(-n2c(=O)c(Oc3ccc(F)cc3F)cc3cnc(Nc4cnn(C)c4)nc32)c1 [Compound 2] | < 200 nM | < 100 nM | < 100 nM | < 200 nM | < 200 nM | < 100 nM | < 200 nM | decrease in EGFR phosphorylation | < 100 nM | decrease in EGFR phosphorylation | decrease in EGFR phosphorylation | < 100 nM | < 100 nM | < 200 nM | < 100 nM | < 100 nM | < 200 nM | < 100 nM | < 200 nM |
| C=CC(=O)N1CCC[C@@H](n2c(=O)c(Oc3ccc(F)cc3F)cc3cnc(Nc4cnn(C5CCN(C)CC5)c4)nc32)C1 [Compound 17] | < 200 nM | < 100 nM |  | < 200 nM | 600 to 1000 nM |  | < 200 nM |  |  |  |  | < 100 nM |  | < 200 nM | < 100 nM | 250 to 500 nM | < 200 nM | < 100 nM | 200 to 600 nM |
